PubChem BioAssay AID328 (DTP/NCI, 2004)
Where “and” joins values, the source holds several entries; their conditions need not be identical. Identical values can stand only once. Inconclusive results and toxic doses are left out.

Test system: BDF1 mice, P388 leukemia ip, median survival T/C
Assay: NCI In Vivo Anticancer Drug Screen. Data for tumor model P388 Leukemia (intraperitoneal) in B6D2F1 (BDF1) mice
Conditions: endpoint: median survival time, higher = longer survival
Method in brief: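 Reported as T/C, where T is the survival measurement in dosed animals and C the same measurement in vehicle controls.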

[1] = dose: 6.25 mg/kg/injection, schedule: Q01DX009 (ip), vehicle: saline with Tween-80
[2] = dose: 12.5 mg/kg/injection, schedule: Q01DX009 (ip), vehicle: saline with Tween-80
[3] = dose: 25.0 mg/kg/injection, schedule: Q01DX009 (ip), vehicle: saline with Tween-80
[4] = dose: 50.0 mg/kg/injection, schedule: Q04DX003 (ip), vehicle: saline with Tween-80
[5] = dose: 100.0 mg/kg/injection, schedule: Q01DX009 (ip), vehicle: saline with Tween-80
[6] = dose: 100.0 mg/kg/injection, schedule: Q04DX003 (ip), vehicle: saline with Tween-80
[7] = dose: 200.0 mg/kg/injection, schedule: Q04DX003 (ip), vehicle: saline with Tween-80
[8] = dose: 400.0 mg/kg/injection, schedule: Q04DX003 (ip), vehicle: saline with Tween-80
[9] = dose: 50.0 mg/kg/injection, schedule: Q01DX009 (ip), vehicle: saline with Tween-80

## NC(CSC(c1ccccc1)(c1ccccc1)c1ccc(Br)cc1)C(=O)O (stereo not drawn)
dose: 5.0 mg/kg/injection, schedule: Q04DX003 (ip), vehicle: Klucel (hydroxypropylcellulose) (HPC)
  T/C: 118 % of control
[1]
  T/C: 190 % of control
[2]
  T/C: 245 % of control
[3]
  T/C: 270 % of control
dose: 25.0 mg/kg/injection, schedule: Q04DX003 (ip), vehicle: saline
  T/C: 165 % of control
dose: 30.0 mg/kg/injection, schedule: Q04DX003 (ip), vehicle: Klucel (hydroxypropylcellulose) (HPC)
  T/C: 154 % of control
dose: 45.0 mg/kg/injection, schedule: Q04DX003 (ip), vehicle: other
  T/C: 166 % of control
[4]
  T/C: 176 % of control
dose: 50.0 mg/kg/injection, schedule: Q04DX003 (ip), vehicle: saline
  T/C: 204 % of control and 210 % of control
dose: 65.0 mg/kg/injection, schedule: Q04DX003 (ip), vehicle: other
  T/C: 183 % of control
[5]
  T/C: 100 % of control
dose: 100.0 mg/kg/injection, schedule: Q04DX003 (ip), vehicle: other
  T/C: 170 % of control
[6]
  T/C: 185 % of control
dose: 100.0 mg/kg/injection, schedule: Q04DX003 (ip), vehicle: saline
  T/C: 230 % of control
dose: 150.0 mg/kg/injection, schedule: Q04DX003 (ip), vehicle: other
  T/C: 250 % of control
[7]
  T/C: 100 % of control

## CCCCNC(C)(C)C(SSS(=O)(=O)O)c1ccc(Cl)cc1 (stereo not drawn)
[6]
  T/C: 100 % of control
[7]
  T/C: 100 % of control
[8]
  T/C: 116 % of control

## NNCc1c(C(=O)O)oc2ccccc12
[9]
  T/C: 99 % of control
[5]
  T/C: 100 % of control

## CC1(C2CC(=O)c3c(O)ccc(O)c3C2)OCCO1 (stereo not drawn)
dose: 25.0 mg/kg/injection, schedule: Q01DX009 (ip), vehicle: other
  T/C: 107 % of control
dose: 50.0 mg/kg/injection, schedule: Q01DX009 (ip), vehicle: other
  T/C: 100 % of control
dose: 100.0 mg/kg/injection, schedule: Q01DX009 (ip), vehicle: other
  T/C: 98 % of control
dose: 200.0 mg/kg/injection, schedule: Q01DX009 (ip), vehicle: other
  T/C: 98 % of control
dose: 400.0 mg/kg/injection, schedule: Q01DX009 (ip), vehicle: other
  T/C: 116 % of control

## Clc1nc2nc(Cl)n(Cl)c2nc1Cl
dose: 12.5 mg/kg/injection, schedule: Q01DX006 (ip), vehicle: saline with Tween-80
  T/C: 100 % of control
dose: 25.0 mg/kg/injection, schedule: Q01DX006 (ip), vehicle: saline with Tween-80
  T/C: 91 % of control
[3]
  T/C: 86 % of control
dose: 25.0 mg/kg/injection, schedule: Q01DX009 (ip), vehicle: water
  T/C: 109 % of control
dose: 50.0 mg/kg/injection, schedule: Q01DX006 (ip), vehicle: saline with Tween-80
  T/C: 109 % of control
[9]
  T/C: 86 % of control
[4]
  T/C: 105 % of control
dose: 100.0 mg/kg/injection, schedule: Q01DX009 (ip), vehicle: water
  T/C: 111 % of control
[6]
  T/C: 105 % of control
dose: 200.0 mg/kg/injection, schedule: Q01DX009 (ip), vehicle: water
  T/C: 116 % of control
[7]
  T/C: 112 % of control

## CCCC1CC(C(=O)NC(C(C)Cl)C2OC(SC)C(O)C(O)C2O)N(C)C1 (stereo not drawn)
dose: 50.0 mg/kg/injection, schedule: Q01DX009 (ip), vehicle: saline
  T/C: 100 % of control
dose: 100.0 mg/kg/injection, schedule: Q01DX009 (ip), vehicle: saline
  T/C: 94 % of control
dose: 200.0 mg/kg/injection, schedule: Q01DX009 (ip), vehicle: saline
  T/C: 102 % of control

## O=C(NOCc1cc2c(cc1Cl)OCO2)c1ccc(S(=O)(=O)F)cc1
dose: 100.0 mg/kg/injection, schedule: Q01DX001 (ip), vehicle: saline sonified
  T/C: 104 % of control
dose: 200.0 mg/kg/injection, schedule: Q01DX001 (ip), vehicle: saline sonified
  T/C: 86 % of control
dose: 400.0 mg/kg/injection, schedule: Q01DX001 (ip), vehicle: saline sonified
  T/C: 86 % of control

## Cc1ccc(S(=O)(=O)/C=C(/I)c2ccccc2)cc1
[1]
  T/C: 124 % of control
[2]
  T/C: 106 % of control
[3]
  T/C: 106 % of control
[9]
  T/C: 92 % of control and 109 % of control
[5]
  T/C: 109 % of control
[6]
  T/C: 114 % of control
dose: 200.0 mg/kg/injection, schedule: Q01DX009 (ip), vehicle: saline with Tween-80
  T/C: 106 % of control
[7]
  T/C: 106 % of control
dose: 400.0 mg/kg/injection, schedule: Q01DX009 (ip), vehicle: saline with Tween-80
  T/C: 100 % of control
[8]
  T/C: 97 % of control
